Assay results taken from patent publication US20090215755A1, “USE OF A PYRAZOLE DERIVATIVE FOR PREPARING MEDICINAL PRODUCTS THAT ARE USEFUL IN THE PREVENTION AND TREATMENT OF DYSLIPIDAEMIAS AND OF DISEASES RELATED TO DYSLIPIDAEMIAS AND/OR TO OBESITY” (SANOFI-AVENTIS, priority 2003, published 2009).
Marks after values point to notes of the source that are not given here.

How the values were obtained:
obese patients [1] = assay: Clinical trial of rimonabant on the lipid parameters, 4 weeks of treatment, obese patients; assay type: in vivo, human; conditions: for Improvement in metabolic syndrome / Weight loss / Decrease in triglycerides ≧10% / Increase in HDLc ≧10% / Blood glucose level: obese patients; for Improvement in metabolic syndrome: ATP III definition; for Weight loss: low-calorie diet; for Decrease in triglycerides ≧10% / Increase in HDLc ≧10%: share of patients; for Blood glucose level: signed values (change)
Description: A clinical trial was carried out for 4 weeks on 287 obese patients whose body mass index (BMI) was between 30 and 40. After having received the placebo for 2 weeks, the patients were randomized so as to receive doses of 5, 10 or 20 mg/day of rimonabant or the placebo.
There was a check-up visit 4 weeks after the end of the treatment.
For the duration of the study, the patients were asked to follow a low-calorie diet (deficit of 500 kcal/day).

obese patients [2] = conditions: clinical studies, Le Fur 2003; Heshmati et al. 2001; cited from earlier work
obese fa/fa Zucker rats = assay: Effect of rimonabant on steatosis and steatohepatitis in obese rats; assay type: in vivo; conditions: rimonabant 30 mg/kg/day oral, 2 months
Description: The effect of rimonabant on steatosis and steatohepatitis was studied in obese fa/fa Zucker rats.
For this study, 3 groups are formed: • thin rats/vehicle group: thin Zucker rats treated with the vehicle (water and 0.1% Tween 80); • obese rats/vehicle group: obese fa/fa Zucker rats treated with the vehicle (water and 0.1% Tween 80); • obese rats/rimonabant group: obese fa/fa Zucker rats treated orally for 2 months with rimonabant at 30 mg/kg/day, in the vehicle (water and 0.1% Tween 80).
After 2 months of treatment, the body weight and the weight of the liver are measured for each rat, and a histopathological analysis of the fat load in the livers is carried out.

obese mice = assay: Action of rimonabant on blood lipid levels in obese mice (2 months of treatment); assay type: in vivo; conditions: rimonabant 10 mg/kg/day oral
Description: The effect of a long-term (2 months) treatment with rimonabant was studied in mice having an established obesity.
The study was carried out in mice receiving either a normal diet or a fatty diet. Obesity developed in the mice receiving a fatty diet and it became stabilized after 5 months. The mice were then divided up into 3 groups:
group 1: maintenance of the fatty diet and oral treatment for 2 months with rimonabant at 10 mg/kg/day, in water with 0.1% of Tween 80 (vehicle);
group 2: maintenance of the fatty diet and administration of the vehicle (water+0.1% of Tween 80);
group 3: return to a normal diet and administration of the vehicle (water+0.1% of Tween 80);
group 4 consists of mice receiving a normal diet and the vehicle from the start.

[3] = system: obese individuals with dyslipidaemias; assay: Rio Lipids clinical study, 12 months, obese individuals with dyslipidaemias; assay type: in vivo, human
Description: The Rio Lipids clinical study, carried out for 12 months in 1036 obese individuals with dyslipidaemias, compares the effect of rimonabant at a dose of 20 mg, versus a placebo product, in weight reduction, improvement in the lipid parameters and prevalence of metabolic syndrome. The treated group and the placebo group are subjected to a low-calorie diet.

[4] = rimonabant groups 5, 10, 20 mg/day taken together
[5] = group 1: obese mice kept on fatty diet
[6] = group 1: obese mice, fatty diet

With `Cc1c(C(=O)NN2CCCCC2)nn(-c2ccc(Cl)cc2Cl)c1-c1ccc(Cl)cc1` [rimonabant, N-piperidino-5-(4-chlorophenyl)-1-(2,4-dichlorophenyl)-4-methylpyrazole-3-carboxamide] the “Improvement in metabolic syndrome” value (obese patients [1]; 5 mg/d rimonabant) was 42%, the Weight loss (obese patients [1]; 5 mg/d rimonabant) was 3.4 * kg and the “Decrease in triglycerides ≧10%” value (obese patients [1]; 5 mg/d rimonabant) was 36%. The “Increase in HDLc ≧10%” value (obese patients [1]; 5 mg/d rimonabant) was 43%, the Blood glucose level (obese patients [1]; 5 mg/d rimonabant) was −0.09 ** mmol/1 and the “Improvement in metabolic syndrome” value (obese patients [1]; 10 mg/d rimonabant) was 39%. For the same compound, the Weight loss (obese patients [1]; 10 mg/d rimonabant) was 3.7 * kg, the “Decrease in triglycerides ≧10%” value (obese patients [1]; 10 mg/d rimonabant) was 34% and the “Increase in HDLc ≧10%” value (obese patients [1]; 10 mg/d rimonabant) was 45%. The Blood glucose level (obese patients [1]; 10 mg/d rimonabant) was −0.02 *** mmol/1, the “Improvement in metabolic syndrome” value (obese patients [1]; 20 mg/d rimonabant) was 21% and the Weight loss (obese patients [1]; 20 mg/d rimonabant) was 4.5 * kg. The “Decrease in triglycerides ≧10%” value (obese patients [1]; 20 mg/d rimonabant) was 51%, the “Increase in HDLc ≧10%” value (obese patients [1]; 20 mg/d rimonabant) was 44% and the Blood glucose level (obese patients [1]; 20 mg/d rimonabant) was “+0.03 mmol/1”. The “blood glucose level (overall statement)” value (obese patients [1]; [4]) was “remains stable or decreases discretely”, the “metabolic syndrome as defined by ATP III (overall statement)” value (obese patients [1]; [4]) was “tendency for the metabolic syndrome to improve” and the “triglycerides (overall statement)” value (obese patients [1]; [4]) was “tendency for the triglycerides to decrease”. The “body weight of obese patients” value (obese patients [2]) was “reduces the body weight of obese patients”, the food intake (obese patients [2]) was “acts on food intake from a quantitative and qualitative point of view” and the “Liver weight/body weight ratio” value (obese fa/fa Zucker rats) was 3.86 ± 0.07 %. For the same compound, the “decrease of the increase in the liver weight/body weight ratio seen in obese/vehicle rats” value (obese fa/fa Zucker rats) was 80%, the “fat overload in the liver (histopathological analysis)” value (obese fa/fa Zucker rats) was “disappearance of this fat overload” and the HDLc/total cholesterol (obese mice; [5]) was 62.2 ± 0.5 %. For the same compound, the LDLc/total cholesterol (obese mice; [5]) was 5.5 ± 0.3 %, the glucose blood level (obese mice; [6]) was “decrease” and the insulin blood level (obese mice; [6]) was “decrease”. The leptin blood level (obese mice; [6]) was “decrease”, the “adiponectin, starting level” value ([3]; rimonabant 20 mg group, before the year of treatment) was 5.8 ± 2.7 µg/mL and the “adiponectin at the end of the year of treatment” value ([3]; rimonabant 20 mg, 12 months) was 8.2 ± 4.2 µg/mL. For the same compound, the “increase in the HDLc level exceeding that of the placebo group” value ([3]; rimonabant 20 mg, 12 months, low-calorie diet) was 11.3±1.7%, the “decrease in the triglyceride level exceeding that of the placebo group” value ([3]; rimonabant 20 mg, 12 months, low-calorie diet, p<0.001) was 12.2±3.7 and the “weight loss greater than that observed in the placebo group” value ([3]; rimonabant 20 mg, 12 months, low-calorie diet, p≦0.001) was 6.3 ± 0.5 kg. The “patients who stopped showing the metabolic syndrome characteristics” value ([3]; rimonabant 20 mg, 12 months, p<0.001 vs placebo) was 60.2%.
